# Experimental data published in PMC12881670, “Investigation into ligand selectivity and bias at the formyl peptide receptor family” (The Journal of Pharmacology and Experimental Therapeutics, 2025).
# Entries after “also recorded” stand apart in the source; their conditions may differ. Where a SMILES comes first, the peptide text is derived from it. Where no end group is shown, it is not given here. The star is where a group is joined. For = O=C*
# What was measured:
# Type in all cases: cell-based
# Hs_FPR2 [1] = molecular target: T1, Hs_FPR2 (Homo sapiens, UniProt P25090); assay: BRET receptor-RLuc8 interaction with Venus-mGsi; settings: for Log EC50 (M): log of EC50, HEK293 transient, 10 min; for Log EC50 (M) / Emax (%): mGsi BRET, mean, ND = no interaction detected; for Emax (%): % of response to 1 μM WKYMVm
# T1 construct: expressed in transfected cells
# T1 sequence (P25090 1-351): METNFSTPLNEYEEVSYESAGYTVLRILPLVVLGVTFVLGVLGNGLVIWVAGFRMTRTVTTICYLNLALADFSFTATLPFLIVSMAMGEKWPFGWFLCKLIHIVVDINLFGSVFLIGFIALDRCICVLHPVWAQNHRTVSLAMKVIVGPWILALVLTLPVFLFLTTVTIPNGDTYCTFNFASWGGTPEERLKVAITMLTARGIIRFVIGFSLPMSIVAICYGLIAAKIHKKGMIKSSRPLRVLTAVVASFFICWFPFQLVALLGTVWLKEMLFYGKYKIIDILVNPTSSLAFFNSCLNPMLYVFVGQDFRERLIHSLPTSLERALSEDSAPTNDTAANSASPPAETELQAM
# Procedure, shortened: (§1)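 Receptor-RLuc8 and acceptor plasmids (Venus-mGsi or YFP-Arrestin 3, 1:4) are transfected; cells are replated after 24 h and grown 24–48 h more. Wells are equilibrated 30 min in HBSS, given coelenterazine h (5 μM final), dosed with compound 5 min later and held 10 min at 37 °C before the BRET read.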
# Hs_FPR1 = molecular target: T2, Hs_FPR1 (Homo sapiens, UniProt P21462); assay: ERK1/2 phosphorylation by Western blotting; design: Emax: dose or concentration left out as unconfirmed; settings: for Log EC50 (M) / EC50: log of EC50, phosphorylation of ERK1/2, HEK293 stable cells; for Log EC50 (M) / Emax (%) / EC50: mean, ND = no pERK signal detected; for Emax (%): phospho-ERK, % of 1 μM WKYMVm
# T2 construct: expressed in transfected cells
# T2 sequence (P21462 1-350): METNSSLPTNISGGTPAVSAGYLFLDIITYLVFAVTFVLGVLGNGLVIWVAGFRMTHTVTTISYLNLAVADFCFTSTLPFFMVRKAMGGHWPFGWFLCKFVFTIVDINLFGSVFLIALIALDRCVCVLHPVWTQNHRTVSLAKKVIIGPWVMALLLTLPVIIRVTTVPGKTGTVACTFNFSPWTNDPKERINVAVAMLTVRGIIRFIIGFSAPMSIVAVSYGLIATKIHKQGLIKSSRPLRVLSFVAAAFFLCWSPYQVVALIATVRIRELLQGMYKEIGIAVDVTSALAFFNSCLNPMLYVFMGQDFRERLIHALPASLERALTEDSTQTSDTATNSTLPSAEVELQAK
# Hs_FPR2 [2] = molecular target: T1, Hs_FPR2; assay: ERK1/2 phosphorylation by Western blotting; design: Emax: dose or concentration left out as unconfirmed; settings: for Log EC50 (M) / EC50: log of EC50, phosphorylation of ERK1/2, HEK293 stable cells; for Log EC50 (M) / Emax (%) / EC50: mean, ND = no pERK signal detected; for Emax (%): phospho-ERK, % of 1 μM WKYMVm
# Mm_Fpr2 [3] = molecular target: T3, Mm_Fpr2 (Mus musculus, UniProt O88536); assay: ERK1/2 phosphorylation by Western blotting; design: Emax: dose or concentration left out as unconfirmed; settings: for Log EC50 (M) / EC50: log of EC50, phosphorylation of ERK1/2, HEK293 stable cells; for Log EC50 (M) / Emax (%) / EC50: mean, ND = no pERK signal detected; for Emax (%): phospho-ERK, % of 1 μM WKYMVm
# T3 construct: expressed in transfected cells
# T3 sequence (O88536 1-351): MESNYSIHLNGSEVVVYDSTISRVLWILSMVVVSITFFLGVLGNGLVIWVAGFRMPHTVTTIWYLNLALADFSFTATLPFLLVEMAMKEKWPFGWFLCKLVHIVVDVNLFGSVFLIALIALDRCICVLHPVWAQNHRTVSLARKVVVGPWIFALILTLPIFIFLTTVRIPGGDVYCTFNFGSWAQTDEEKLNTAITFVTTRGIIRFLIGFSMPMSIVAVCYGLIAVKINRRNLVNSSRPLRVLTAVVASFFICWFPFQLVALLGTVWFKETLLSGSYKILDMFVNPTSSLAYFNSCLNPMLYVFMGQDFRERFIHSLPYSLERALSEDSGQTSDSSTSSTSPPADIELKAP
# Hs_FPR2 [4] = molecular target: T1, Hs_FPR2; assay: BRET receptor-RLuc8 interaction with Arrestin 3-YFP; settings: for Emax (%) / Log EC50 (M): Arrestin 3 BRET, mean, ND = no interaction detected; for Emax (%): % of response to 1 μM WKYMVm; for Log EC50 (M): log of EC50, HEK293 transient, 10 min
# Procedure, shortened: as §1
# Mm_Fpr1 = molecular target: T4, Mm_Fpr1 (Mus musculus, UniProt P33766); assay: Internalization of FLAG-tagged receptors by flow cytometry; design: Emax: dose or concentration left out as unconfirmed; settings: for agonist-induced internalization (words): Mm_Fpr1, 30 min, relative to 1 μM WKYMVm
# T4 construct: expressed in transfected cells
# T4 sequence (P33766 1-364): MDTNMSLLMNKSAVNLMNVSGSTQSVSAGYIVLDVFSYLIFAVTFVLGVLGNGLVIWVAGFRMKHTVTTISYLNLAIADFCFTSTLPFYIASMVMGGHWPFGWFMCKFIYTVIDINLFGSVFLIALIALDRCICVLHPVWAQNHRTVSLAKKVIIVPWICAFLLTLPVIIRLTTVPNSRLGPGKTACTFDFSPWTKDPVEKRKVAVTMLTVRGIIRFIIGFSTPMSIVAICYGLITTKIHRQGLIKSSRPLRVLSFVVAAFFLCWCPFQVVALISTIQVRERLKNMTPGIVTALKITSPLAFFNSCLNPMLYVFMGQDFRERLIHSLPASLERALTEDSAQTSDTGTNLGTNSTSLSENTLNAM
# Procedure, shortened: (§2)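 Surface FLAG-receptors labelled with Alexa Fluor-conjugated M1 anti-FLAG for 30 min at 37 °C, then exposed to ligand; surface antibody stripped with PBS/0.04% EDTA and internalised fluorescence read by flow cytometry (5000 events), constitutive endocytosis subtracted. Curves fitted by log(agonist) vs response, 3 parameters.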
# Mm_Fpr2 [5] = molecular target: T3, Mm_Fpr2; assay: as above; design: Emax: dose or concentration left out as unconfirmed; settings: for Emax (%), internalization, Mean: % of internalization to WKYMVm (1 mM in legend, 1 μM in text), Mm_Fpr2, 30 minutes; for Log EC50 (M), internalization, Mean: HEK293 stably expressing FLAG-Mm_Fpr2, ligand 30 minutes; for agonist-induced internalization (words): Mm_Fpr2, 30 min, relative to 1 μM WKYMVm
# Procedure, shortened: as §2
# [6] = Hs_FPR2-Rluc8 donor, Arrestin 3-YFP acceptor, read-out: EC50 arrestin recruitment, BRET
compound,measurement,setting,value
Cc1cccc(-c2oc(C)nc2C(=O)Nc2cnn(Cc3nc(C(C)(F)F)co3)n2)c1 [ACT-389949],Log EC50 (M),Hs_FPR2 [1],−7.80 M
same,Emax (%),Hs_FPR2 [1],69.25%
same,Log EC50 (M),Hs_FPR1,−7.37 M
same,Emax (%),Hs_FPR1,112.1%
same,Log EC50 (M),Hs_FPR2 [2],−7.723 M
same,Emax (%),Hs_FPR2 [2],81.57%
same,Log EC50 (M),Mm_Fpr2 [3],−8.394 M
same,Emax (%),Mm_Fpr2 [3],136.1%
same,Emax (%),Hs_FPR2 [4],73.56%
same,EC50,Hs_FPR2 [4]; [6],18 nM
same,Log EC50 (M),Hs_FPR2 [4],−7.74 M
same,agonist-induced internalization (words),Mm_Fpr1,only at 10 μM
same,"Emax (%), internalization, Mean",Mm_Fpr2 [5],118.5%
same,"Log EC50 (M), internalization, Mean",Mm_Fpr2 [5],−6.539 M
same,agonist-induced internalization (words),Mm_Fpr2 [5],full agonist
same,"fold less potency at Mm_Fpr2, internalization",Mm_Fpr2 [5]; equipotent to WKYMVm at Hs_FPR2,28 fold
COc1cc(F)c([C@@H]2CNC(=O)[C@H]2NC(=O)Nc2ccccc2)c(F)c1 [BMS-986235],EC50,Hs_FPR2 [1],75.9 nM
same,Emax,Hs_FPR2 [1],64.4%
same,EC50,Hs_FPR1,16200 nM
same,Emax,Hs_FPR2 [2],116%
same,EC50,Hs_FPR2 [2],679 nM
same,Emax,Mm_Fpr2 [3],116%
same,EC50,Mm_Fpr2 [3],3.78 nM
same,Emax,Hs_FPR2 [4],85.1%
same,EC50,Hs_FPR2 [4]; [6],39.9 nM
same,agonist-induced internalization (words),Mm_Fpr1,failed to show appreciable internalization; also recorded: unable to induce any measurable internalization
same,Emax,Mm_Fpr2 [5],88%
same,"times more potent at Mm_Fpr2 than Hs_FPR2, internalization",Mm_Fpr2 [5],9 times
same,agonist-induced internalization (words),Mm_Fpr2 [5],robust internalization
same,EC50,"Mm_Fpr2 [5]; read-out: Log EC50 (M), internalization, Mean (converted)",1.03e-07 M
CCCCOc1ccc(C(=O)NN2C(=O)c3ccccc3NC2c2ccc(OC)cc2)cc1 (stereo not shown) [QuinC1],Log EC50 (M),Hs_FPR2 [1],−6.06 M
same,Emax (%),Hs_FPR2 [1],34.75%
same,Log EC50 (M),Hs_FPR1,−5.86 M
same,Emax (%),Hs_FPR1,92.57%
same,Log EC50 (M),Hs_FPR2 [2],−5.882 M
same,Emax (%),Hs_FPR2 [2],101.7%
same,Log EC50 (M),Mm_Fpr2 [3],−4.94 M
same,Emax (%),Mm_Fpr2 [3],381.2%
same,Emax (%),Hs_FPR2 [4],40.71%
same,Log EC50 (M),Hs_FPR2 [4],−5.82 M
same,"Emax (%), internalization, Mean","Mm_Fpr1; % of internalization to WKYMVm (1 mM in legend, 1 μM in text), Mm_Fpr1, 30 minutes, ND denotes no internalization measured",66.27%
same,"Log EC50 (M), internalization, Mean","Mm_Fpr1; Log EC50, HEK293 stably expressing FLAG-Mm_Fpr1, ligand 30 minutes, ND denotes no internalization measured",−6.120 M
same,agonist-induced internalization (words),Mm_Fpr1,partial agonists
same,"Emax (%), internalization, Mean",Mm_Fpr2 [5],41.84%
same,"Log EC50 (M), internalization, Mean",Mm_Fpr2 [5],−7.106 M
same,agonist-induced internalization (words),Mm_Fpr2 [5],partial agonists
CSCC[C@H](NC(=O)[C@H](Cc1ccc(O)cc1)NC(=O)[C@H](CCCCN)NC(=O)[C@@H](N)Cc1c[nH]c2ccccc12)C(=O)N[C@H](C(=O)N[C@H](CCSC)C(N)=O)C(C)C [WKYMVm],Emax,Hs_FPR2 [1],100%
same,Emax,Hs_FPR1,104%
same,Emax,Hs_FPR2 [2],93.8%
same,Emax,Mm_Fpr2 [3],118%
same,Emax,Hs_FPR2 [4],102%
same,Emax,Mm_Fpr1,108%
same,Emax,Mm_Fpr2 [5],102%
"CSCC[C@H](NC=O)C(=O)N[C@@H](CC(C)C)C(=O)N[C@@H](Cc1ccccc1)C(=O)N[C@@H](CCCCN)C(=O)O [fMLFK, fMet-Leu-Phe-Lys] (For-MLFK-OH)",EC50,Hs_FPR2 [1],26900 nM
same,Emax,Hs_FPR2 [1],80.7%
same,Emax,Hs_FPR1,112%
same,EC50,Hs_FPR1,6.85 nM
same,Emax,Hs_FPR2 [2],74.3%
same,EC50,Hs_FPR2 [2],1320 nM
same,Emax,Mm_Fpr2 [3],176%
same,EC50,Mm_Fpr2 [3],1240 nM
same,Emax,Hs_FPR2 [4],92.7%
same,EC50,Hs_FPR2 [4]; read-out: Log EC50 (converted),36300 nM
same,EC50,Mm_Fpr1,6110 nM
same,Emax,Mm_Fpr1,179%
same,EC50,Mm_Fpr2 [5],1.16e-05 M
same,Emax,Mm_Fpr2 [5],81.6%
LESIFRSLLFRVM [MMK1],Emax,Hs_FPR2 [1],38.7%
same,Log EC50 (M),Hs_FPR2 [1],−7.17 M
same,Emax,Hs_FPR1,40.1%
same,Log EC50 (M),Hs_FPR1,−6.84 M
same,Emax,Hs_FPR2 [2],114%
same,Log EC50 (M),Hs_FPR2 [2],−8.646 M
same,Emax,Mm_Fpr2 [3],86.6%
same,Log EC50 (M),Mm_Fpr2 [3],−6.482 M
same,Emax,Hs_FPR2 [4],59.1%
same,Log EC50 (M),Hs_FPR2 [4],−7.03 M
same,Emax,Mm_Fpr1,11.6%
same,agonist-induced internalization (words),Mm_Fpr1,failed to show appreciable internalization
same,agonist-induced internalization (words),Mm_Fpr1; listed as MMK-1,unable to induce internalization
same,Emax,Mm_Fpr2 [5],8.68%
same,agonist-induced internalization (words),Mm_Fpr2 [5],unable to induce internalization
